pIC50: −log10 of the molar value. Values joined by “and” are separate entries in the source; they are usually repeats but may differ in a detail not shown here. Equal entries are not always repeated. Where two headings read alike, the source gives them in different places.
Assays:
[1] = Body weight / tolerability in flank tumor study; assay type: in vivo; parameters: weight of flank tumor mice: unit not given here; details: for weight of flank tumor mice: individual mice
Experimental: We next examined whether QST treatment alone or in combination with IR would be effective in slowing tumor growth in a flank model of GBM (U87). Tumor-bearing mice receiving IR were treated with 2-Gy fractions on Monday, Wednesday, and Friday (MWF) 2 hours after dosing with either vehicle solution or QST (10 mg/kg), for a total dose of 6 Gy. Following completion of IR, mice continued to receive vehicle or QST until the tumors reached the maximum volume threshold (Figure 5C). […] The mean tumor volume in mice with combination treatment was approximately 4.5-fold less than that in vehicle-treated mice at study completion (Figure 5D). […]
treated with 2 Gy of ionizing radiation on MWF for a total 6 Gy (3 doses). Ionizing radiation was administered with the RS2000 series biological research irradiator (Rad Source Technologies).
Treatment of Flank-Implanted Mice with QST and/or Radiation
Implanted flank tumors were allowed to grow until the tumor size reached 100 mm3 volume. Mice were randomized into groups before treatment and underwent treatment on MWF for the entire duration of the experiment until the tumor volumes exceeded 2000 mm3. Treatment groups included vehicle (50% PEG-300), QST alone (10 mg/kg), flank IR treatment with vehicle (2 Gy), and flank IR treatment (2 Gy) with QST (10 mg/kg). For mice receiving IR treatment with or without QST, mice were treated with 2 Gy on MWF for a total 6 Gy during the first week of treatment. QST was administered to mice through intraperitoneal injections 2 hours before flank tumor radiation treatment. Upon completion of the radiation regimen, IR-treated mice subsequently received QST or vehicle alone for the rest of the experiment. Tumor growth and treatment response were monitored by manually measuring the tumor area twice per week starting at 13 days after implantation. Upon reaching the tumor volume threshold (2000 mm3), mice were sacrificed, and plasma and tissue samples were harvested for PD and PK analyses 2 hours after treatment with a final dose of QST (10 mg/kg). […]

[2] = test system: HDAC1; details: cited from earlier work
[3] = Total and unbound QST in tumor and contralateral brain, short-term treatment, orthotopic GB126 PDX; assay type: in vivo
Experimental: To establish the PK-PD correlation and efficacy in an orthotopic patient-derived xenograft (PDX) model of GBM, we implanted GB126 cells in the brains of athymic nude mice and began treatment once the tumors started growing exponentially. Tumor-bearing mice were treated with QST (10 mg/kg), with or without IR, on a MWF schedule (Figure 7A). As described above, IR was delivered locally to the brain in 2-Gy fractions 2 hours after being dosed with vehicle solution or QST, for a cumulative delivery of 6 Gy. To assess acute PD effects and drug levels after short-term QST treatment (1 week, 3 doses total), 10 mice from each experimental cohort were sacrificed 3 hours after receiving the third dose of vehicle solution or QST (Figure 7A). Plasma, tumors, and brain tissue contralateral to the tumors were collected and processed for PK and PD analyses. […] To assess PD modulation, we homogenized brain tumors to obtain whole-tissue protein lysates from each mouse and quantified changes in histone H3 acetylation levels using immunoblotting.
QST concentrations in specimens were measured using reverse-phase LC on the AB SCIEX QTRAP6500+ LC-MS/MS system by operating electrospray in the positive ion mode. For liquid chromatographic separation, gradient elution was performed using a Phenomenex Kinetex F5 100 Å column (100 × 2.1 mm, 2.6 μm). The initial composition of the mobile phase was 70% phase A (0.1% formic acid in water) and 30% phase B (0.1% formic acid in 1:1 acetonitrile/methanol) with a 0.35 mL/min flow rate. […] The total run time was 3.5 minutes. The internal standard used in this study was D8-infigratinib. […] LC-MS/MS analysis was performed using an Analyst 1.7 Chromatographic Data System. See Supplemental Methods for detailed PK experiments.
Gy on MWF for a total of 6 Gy in the first week of treatment. Treatment groups included vehicle (50% PEG-3000), QST (10 mg/kg) alone, 6 Gy whole-brain IR treatment with vehicle, and 6 Gy whole-brain IR treatment with 10 mg/kg QST. QST was administered to mice through intraperitoneal injections two hours prior to whole-brain radiation treatment. […]
For short-term PK-PD correlation studies, tumor-bearing mice were randomized into groups and underwent a single week of treatment with QST (10 mg/kg) on MWF. For mice receiving IR treatment with or without QST, mice were treated with 2 Gy on MWF for a total of 6 Gy. QST was administered to mice through intraperitoneal injections 2 hours before whole-brain radiation treatment. On the third and last day of treatment, mice were sacrificed and processed for PD and PK analyses 3 hours after administration of QST or vehicle. For PD analyses, the mice were euthanized with isoflurane, and the tumors were dissected out of the brain and flash-frozen for subsequent analysis through Western blotting and RNA sequencing.
Tissue from the hemisphere contralateral to the tumor was also collected as a normal brain/nontumor reference sample. For PK analyses, the mice were anesthetized with isoflurane, and at least 300 μL of blood was drawn from the right ventricle of the heart. The blood was collected in tubes containing 10 μL of 0.1 M KOH in EDTA to prevent blood coagulation. Blood samples were immediately centrifuged at 3000 rpm for 10 minutes at 4 °C to allow separation of plasma. After collection of the blood, the tumor was dissected out of the brain and flash -frozen.

[4] = test system: orthotopic GB126 tumors; assay: RT-qPCR of neuronal genes in GB126 tumors; assay type: in vivo, athymic nude mice; details: relative to Vehicle mouse 1 = 1, individual mice
Experimental: Reverse Transcription Quantitative Polymerase Chain Reaction
Total RNA was extracted from orthotopic tumors by using the RNeasy Mini Kit (Qiagen) in accordance with the manufacturer’s instructions. RNA was quantified on a NanoDrop Spectrophotometer ([…]), and 1 μg of total RNA was used for complementary DNA synthesis by using the SuperScript VILO kit (Life Technologies). Quantitative polymerase chain reaction was performed using inventoried TaqMan assays for respective target genes and housekeeping control genes (18S) on the QuantStudio 6 Flex Real -Time PCR System (Life Technologies).
Fold change in gene expression was analyzed using the delta delta Ct method.

[5] = acute treated tumors, individual mice

Cn1cc(CNCC2CCN(c3ncc(C(=O)NO)cn3)CC2)c2ccccc21 [QST, quisinostat]
tolerability (mean weights) ([1]; 10 mg/kg IP MWF, alone and in combination with IR, flank tumor study): well tolerated
weight of flank tumor mice ([1]; day 13 post-injection): 29.8
weight of flank tumor mice ([1]; day 22 post-injection): 29.9 (2×) and 27.3 and 29.1 and 26 (2×) and 31.1 and 29.8 and 28 and 28.9
UNBOUND [QST], Brain ([3]; acute treated tumor-bearing mice, individual mice): 1.55 nM and 0.424 nM and 0.84 nM and 2.425 nM and 1.0975 nM
concentration at 3 h ([3]; acute treated tumor-bearing mice, individual mice, read-out: TOTAL [QST], brain): 31 nM and 8.48 nM and 48.5 nM and 21.95 nM
TOTAL [QST], tumor [3, 5]: 634.32 nM and 1029.61 nM and 23.89 nM and 646.61 nM and 605.65 nM
UNBOUND [QST], Tumor [3, 5]: 31.716 nM and 51.4805 nM and 1.1945 nM and 32.3305 nM and 30.2825 nM
concentration at 3 h ([3]; athymic nude, mouse, brain tissue contralateral to the tumor, intraperitoneal, 10 mg/kg, acute treated tumor-bearing mice, mean, read-out: Total QST, brain, mean): 25.4 nM
concentration at 3 h ([3]; athymic nude, mouse, brain tissue contralateral to the tumor, intraperitoneal, 10 mg/kg, acute treated tumor-bearing mice, mean, read-out: Unbound QST, brain, mean): 1.27 nM
concentration at 3 h ([3]; athymic nude, mouse, brain tumor (orthotopic GB126 xenograft), intraperitoneal, 10 mg/kg, acute treated tumors, mean, read-out: Total QST, tumor, mean): 588 nM
concentration at 3 h ([3]; athymic nude, mouse, brain tumor (orthotopic GB126 xenograft), intraperitoneal, 10 mg/kg, acute treated tumors, mean, read-out: Unbound QST, tumor, mean): 29.4 nM
concentration at 3 h ([3]; athymic nude, mouse, in vivo, 10 mg/kg, acute treated tumor-bearing mice, individual mice, read-out: TOTAL [QST], brain): 16.8 nM
qPCR CECR2 expression ([4]; Combo (QST + IR)): 90.297 and 227.304 and 107.431
qPCR GABRA2 expression ([4]; Combo (QST + IR)): 62.6009 and 92.8255 and 56.6887
qPCR SCN3A expression ([4]; Combo (QST + IR)): 28.0147 and 63.295 and 75.3722
qPCR BDNF expression ([4]; QST + IR): 14.0587 and 9.35 and 2.8459
qPCR KCNQ3 expression ([4]; QST + IR): 9.67 and 10.8552 and 27.8625
qPCR NGFR expression ([4]; QST + IR): 3.525 and 9.249 and 10.5627
qPCR BDNF expression ([4]; QST): 5.022 and 6.518 and 12.9199
qPCR CECR2 expression ([4]; QST): 38.4564 and 79.55 and 112.554
qPCR GABRA2 expression ([4]; QST): 1.543 and 82.6227 and 31.8541
qPCR KCNQ3 expression ([4]; QST): 1.23 and 4.886 and 2.677
qPCR NGFR expression ([4]; QST): 13.22 and 5.955 and 12.7613
qPCR SCN3A expression ([4]; QST): 6.113 and 76.4987 and 9.293

From paper PMC10721329, “Quisinostat is a brain-penetrant radiosensitizer in glioblastoma” (JCI Insight, 2023)
